Results from patent publication US20100267561A1, “HERBICIDAL PYRIDAZINONE DERIVATIVES” (priority 2007, published 2010).

Key:
Experiment in all cases: Test B pre-/postemergence plant response
Type in all cases: in vivo
Conditions in all cases: Preemergence
[1] = system: Italian ryegrass (Lolium multiflorum)
From the text: (§1) Seeds of plant species selected from blackgrass (Alopecurus myosuroides), downy bromegrass (Bromus tectorum), green foxtail (Setaria viridis), Italian ryegrass (Lolium multiflorum), wheat (Triticum aestivum), wild oat (Avena fatua), catchweed bedstraw (Galium aparine), bermudagrass (Cynodon dactylon), surinam grass (Brachiaria decumbens), cocklebur (Xanthium strumarium), corn (Zea mays), large crabgrass (Digitaria sanguinalis), woolly cupgrass (Eriochloa villosa), giant foxtail (Setaria faberii), goosegrass (Eleusine indica), johnsongrass (Sorghum halepense), kochia (Kochia scoparia), lambsquarters (Chenopodium album), morningglory (Ipomoea coccinea), eastern black (E.B.) nightshade (Solanum ptycanthum), yellow nutsedge (Cyperus esculentus), pigweed (Amaranthus retroflexus), common ragweed (Ambrosia elation), Russian thistle (Salsola iberica), soybean (Glycine max), common (oilseed) sunflower (Helianthus annuus), and velvetleaf (Abutilon theophrasti) were planted and treated preemergence with test chemicals formulated in a non-phytotoxic solvent mixture which included a surfactant.
(§2) At the same time, plants selected from these crop and weed species and also winter barley (Hordeum vulgare), canarygrass (Phalaris minor), chickweed (Stellaria media) and windgrass (Apera spica-venti) were treated with postemergence applications of some of the test chemicals formulated in the same manner. Plants ranged in height from 2 to 18 cm (1- to 4-leaf stage) for postemergence treatments.
(§3) Plant species in the flooded paddy test consisted of rice (Oryza sativa), umbrella sedge (Cyperus difformis), ducksalad (Heteranthera limosa) and barnyardgrass (Echinochloa crus-galli) grown to the 2-leaf stage for testing. At time of treatment, test pots were flooded to 3 cm above the soil surface, treated by application of test compounds directly to the paddy water, and then maintained at that water depth for the duration of the test. Treated plants and controls were maintained in a greenhouse for 13 to 15 days, after which time all species were compared to controls and visually evaluated. Plant response ratings, summarized in Table B, are based on a scale of 0 to 100 where 0 is no effect and 100 is complete control. A dash (-) response means no test result.

[2] = system: bermudagrass (Cynodon dactylon)
From the text: as §1, §2, §3

[3] = system: blackgrass (Alopecurus myosuroides)
From the text: as §1, §2, §3

[4] = system: common ragweed (Ambrosia elation)
From the text: as §1, §2, §3

corn (Zea mays) = system: corn (Zea mays)
From the text: as §1, §2, §3

[5] = system: eastern black (E.B.) nightshade (Solanum ptycanthum)
From the text: as §1, §2, §3

[6] = system: giant foxtail (Setaria faberii)
From the text: as §1, §2, §3

[7] = system: johnsongrass (Sorghum halepense)
From the text: as §1, §2, §3

[8] = system: lambsquarters (Chenopodium album)
From the text: as §1, §2, §3

[9] = system: morningglory (Ipomoea coccinea)
From the text: as §1, §2, §3

[10] = system: surinam grass (Brachiaria decumbens)
From the text: as §1, §2, §3

wild oat (Avena fatua) = system: wild oat (Avena fatua)
From the text: as §1, §2, §3

[11] = system: yellow nutsedge (Cyperus esculentus)
From the text: as §1, §2, §3

[12] = 16 g ai/ha, scale 0 to 100 (0 no effect, 100 complete control)
[13] = 31 g ai/ha, scale 0 to 100 (0 no effect, 100 complete control)
[14] = 31 g ai/ha, 0 to 100 scale, 0 no effect, 100 complete control

SMILES: Cc1cc(-c2ccc(Cl)cc2)nn1-c1c(OS(=O)(=O)c2cccc3ccccc23)cnn(C)c1=O [Compound 47]
- Plant response rating, Ryegrass, Italian [1, 12]: 80
- Plant response rating, Ryegrass, Italian [1, 13]: 90
- Plant response rating, Ryegrass, Italian ([1]; 62 g ai/ha, scale 0 to 100): 98
- Ryegrass, Italian plant response rating ([1]; 8 g ai/ha, scale 0 to 100): 0
- Bermudagrass plant response rating ([2]; 8 g ai/ha, scale 0 to 100 (0 no effect, 100 complete control)): 60
- Plant response rating, Bermudagrass [2, 12]: 100
- Plant response rating, Bermudagrass [2, 14]: 100
- Plant response rating, Bermudagrass ([2]; 62 g ai/ha, scale 0 to 100): 100
- Plant response rating, Blackgrass [3, 12]: 70
- Plant response rating, Blackgrass [3, 14]: 100
- Plant response rating, Blackgrass ([3]; 62 g ai/ha, scale 0 to 100): 100
- Blackgrass plant response rating ([3]; 8 g ai/ha, scale 0 to 100): 70
- Plant response rating, Ragweed [4, 12]: 0
- Plant response rating, Ragweed [4, 13]: 0
- Plant response rating, Ragweed ([4]; 62 g ai/ha, scale 0 to 100): 0
- Ragweed plant response rating ([4]; 8 g ai/ha, scale 0 to 100): 0
- Plant response rating, Corn (corn (Zea mays); [12]): 20
- Plant response rating, Corn (corn (Zea mays); [14]): 85
- Plant response rating, Corn (corn (Zea mays); 62 g ai/ha, scale 0 to 100): 95
- Corn plant response rating (corn (Zea mays); 8 g ai/ha, scale 0 to 100): 0
- Plant response rating, Nightshade, E. B. [5, 12]: 0
- Plant response rating, Nightshade, E. B. [5, 13]: 0
- Plant response rating, Nightshade, E. B. ([5]; 62 g ai/ha, scale 0 to 100): 0
- Nightshade, E. B. plant response rating ([5]; 8 g ai/ha, scale 0 to 100): 0
- Plant response rating, Foxtail, Giant [6, 12]: 98
- Plant response rating, Foxtail, Giant [6, 14]: 100
- Plant response rating, Foxtail, Giant ([6]; 62 g ai/ha, scale 0 to 100): 100
- Foxtail, Giant plant response rating ([6]; 8 g ai/ha, scale 0 to 100): 0
- Plant response rating, Johnsongrass [7, 12]: 75
- Plant response rating, Johnsongrass [7, 14]: 85
- Plant response rating, Johnsongrass ([7]; 62 g ai/ha, scale 0 to 100): 95
- Johnsongrass plant response rating ([7]; 8 g ai/ha, scale 0 to 100): 0
- Plant response rating, Lambsquarters [8, 14]: 0
- Plant response rating, Lambsquarters ([8]; 62 g ai/ha, scale 0 to 100): 65
- Lambsquarters plant response rating ([8]; 8 g ai/ha, scale 0 to 100): 0
- Plant response rating, Morningglory [9, 12]: 0
- Plant response rating, Morningglory [9, 13]: 0
- Plant response rating, Morningglory ([9]; 62 g ai/ha, scale 0 to 100): 0
- Morningglory plant response rating ([9]; 8 g ai/ha, scale 0 to 100): 0
- Plant response rating, Surinam Grass [10, 12]: 95
- Plant response rating, Surinam Grass [10, 13]: 98
- Plant response rating, Surinam Grass ([10]; 62 g ai/ha, 0 to 100 scale, 0 no effect, 100 complete control): 100
- Surinam Grass plant response rating ([10]; 8 g ai/ha, scale 0 to 100): 80
- Plant response rating, Oat, Wild (wild oat (Avena fatua); [12]): 0
- Plant response rating, Oat, Wild (wild oat (Avena fatua); [13]): 0
- Plant response rating, Oat, Wild (wild oat (Avena fatua); 62 g ai/ha, scale 0 to 100): 70
- Oat, Wild plant response rating (wild oat (Avena fatua); 8 g ai/ha, scale 0 to 100): 0
- Plant response rating, Nutsedge, Yellow [11, 12]: 0
- Plant response rating, Nutsedge, Yellow [11, 13]: 0
- Plant response rating, Nutsedge, Yellow ([11]; 62 g ai/ha, scale 0 to 100): 0
- Nutsedge, Yellow plant response rating ([11]; 8 g ai/ha, scale 0 to 100): 0
